Earlier results on two compounds are cited in publication PMC6832352, “Synthesis and Glycosidase Inhibition of Broussonetine M and Its Analogues” (Molecules, 2019).

In one data set the test system is β-Galactosidase. The settings on record: β-Galactosidase, Bovine liver, cited from earlier work; for inhibition %: at 1000 μM (per NI footnote).
The next data set addresses T1, Amyloglucosidase (Aspergillus niger, UniProt P69328).
T1 construct: purchased Sigma-Aldrich Chemical Co
Also on record: method as in PMID 21157573. The settings on record: A. niger, cited from earlier work.

Data set [1] has as its target T2, β-Glucosidase (Bos taurus, UniProt F1MNT6).
T2 sequence (F1MNT6 1-469): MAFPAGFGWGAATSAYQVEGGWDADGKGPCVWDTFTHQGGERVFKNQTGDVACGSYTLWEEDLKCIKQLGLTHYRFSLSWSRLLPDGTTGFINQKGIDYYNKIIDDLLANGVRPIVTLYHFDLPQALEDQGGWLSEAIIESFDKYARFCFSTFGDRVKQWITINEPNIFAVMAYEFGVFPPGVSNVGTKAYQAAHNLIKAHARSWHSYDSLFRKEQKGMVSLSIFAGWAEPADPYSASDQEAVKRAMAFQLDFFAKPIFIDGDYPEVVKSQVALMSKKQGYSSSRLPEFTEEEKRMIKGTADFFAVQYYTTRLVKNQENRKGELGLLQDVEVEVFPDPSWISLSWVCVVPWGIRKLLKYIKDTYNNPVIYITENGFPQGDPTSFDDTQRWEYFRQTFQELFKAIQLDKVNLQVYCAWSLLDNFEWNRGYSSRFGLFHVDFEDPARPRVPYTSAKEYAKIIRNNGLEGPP
The settings on record: Bovine liver, cited from earlier work.

The next data set concerns the target T3, α-Galactosidase (Coffea arabica, UniProt Q42656).
T3 construct: purchased Sigma-Aldrich Chemical Co
The settings on record: Coffee beans, cited from earlier work; for inhibition %: at 1000 μM (per NI footnote).

Data set [2] addresses T4, α-Glucosidase (Saccharomyces cerevisiae, UniProt P53341).
T4 construct: purchased Sigma-Aldrich Chemical Co
The settings on record: Yeast; cited from earlier work.

Data set [3] deals with β-Glucosidase. The settings on record: Almond; cited from earlier work.
The next data set concerns the target β-Mannosidase. The settings on record: Snail, cited from earlier work; for inhibition %: at 1000 μM (per NI footnote).
The next data set has as its target T5, α-L-Fucosidase (Bos taurus, UniProt Q2KIM0).
T5 construct: purchased Sigma-Aldrich Chemical Co; host or cells: bovine kidney
T5 sequence (Q2KIM0 23-468): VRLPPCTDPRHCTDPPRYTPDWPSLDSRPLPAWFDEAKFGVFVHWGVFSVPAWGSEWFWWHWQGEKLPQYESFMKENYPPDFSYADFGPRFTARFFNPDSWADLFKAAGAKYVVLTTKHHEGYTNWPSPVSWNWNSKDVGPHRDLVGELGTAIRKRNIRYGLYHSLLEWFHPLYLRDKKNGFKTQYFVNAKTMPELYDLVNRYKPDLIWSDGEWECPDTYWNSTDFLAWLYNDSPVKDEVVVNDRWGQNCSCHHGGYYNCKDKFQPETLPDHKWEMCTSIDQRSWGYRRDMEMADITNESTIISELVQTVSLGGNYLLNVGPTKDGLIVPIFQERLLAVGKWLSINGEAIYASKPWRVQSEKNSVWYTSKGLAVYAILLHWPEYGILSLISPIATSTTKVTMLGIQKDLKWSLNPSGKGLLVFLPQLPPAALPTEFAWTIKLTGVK
The settings on record: Bovine kidney, cited from earlier work; for inhibition %: at 1000 μM (per NI footnote).

Data set [4] concerns the target T6, α-Glucosidase (Oryza sativa subsp. japonica, UniProt Q653V7).
T6 construct: purchased Sigma-Aldrich Chemical Co
The settings on record: Rice; cited from earlier work.

The next data set deals with T7, α-L-Rhamnosidase (Penicillium decumbens, UniProt S7ZS15).
T7 sequence (S7ZS15 1-894): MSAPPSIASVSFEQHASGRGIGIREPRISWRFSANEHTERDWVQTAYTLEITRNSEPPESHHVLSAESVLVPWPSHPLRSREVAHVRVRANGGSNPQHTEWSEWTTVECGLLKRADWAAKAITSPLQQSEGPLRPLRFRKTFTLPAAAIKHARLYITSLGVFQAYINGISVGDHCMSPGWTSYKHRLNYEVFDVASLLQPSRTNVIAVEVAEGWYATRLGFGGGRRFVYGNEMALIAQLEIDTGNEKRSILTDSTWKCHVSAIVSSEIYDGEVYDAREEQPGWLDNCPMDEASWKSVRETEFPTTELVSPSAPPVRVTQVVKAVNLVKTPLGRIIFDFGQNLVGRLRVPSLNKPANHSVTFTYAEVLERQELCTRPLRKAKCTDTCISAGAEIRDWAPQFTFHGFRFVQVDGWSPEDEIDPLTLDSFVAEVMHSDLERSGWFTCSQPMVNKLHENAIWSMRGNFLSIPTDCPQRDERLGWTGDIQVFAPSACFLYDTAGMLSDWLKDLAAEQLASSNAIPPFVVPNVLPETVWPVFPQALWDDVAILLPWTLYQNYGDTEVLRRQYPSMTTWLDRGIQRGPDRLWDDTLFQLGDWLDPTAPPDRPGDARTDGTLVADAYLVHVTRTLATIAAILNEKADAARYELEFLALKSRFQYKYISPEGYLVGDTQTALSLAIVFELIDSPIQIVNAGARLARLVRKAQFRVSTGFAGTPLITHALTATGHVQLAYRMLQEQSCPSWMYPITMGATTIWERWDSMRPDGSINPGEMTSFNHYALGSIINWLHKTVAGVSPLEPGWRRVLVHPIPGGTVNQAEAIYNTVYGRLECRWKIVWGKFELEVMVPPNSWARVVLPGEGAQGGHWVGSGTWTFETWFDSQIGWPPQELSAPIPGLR
The settings on record: at 1000 μM (per NI footnote), P. decumbens; cited from earlier work.

The next data set addresses T8, α-Mannosidase (Canavalia ensiformis, UniProt C0HJB3).
T8 construct: purchased Sigma-Aldrich Chemical Co
T8 sequence (C0HJB3 1-981): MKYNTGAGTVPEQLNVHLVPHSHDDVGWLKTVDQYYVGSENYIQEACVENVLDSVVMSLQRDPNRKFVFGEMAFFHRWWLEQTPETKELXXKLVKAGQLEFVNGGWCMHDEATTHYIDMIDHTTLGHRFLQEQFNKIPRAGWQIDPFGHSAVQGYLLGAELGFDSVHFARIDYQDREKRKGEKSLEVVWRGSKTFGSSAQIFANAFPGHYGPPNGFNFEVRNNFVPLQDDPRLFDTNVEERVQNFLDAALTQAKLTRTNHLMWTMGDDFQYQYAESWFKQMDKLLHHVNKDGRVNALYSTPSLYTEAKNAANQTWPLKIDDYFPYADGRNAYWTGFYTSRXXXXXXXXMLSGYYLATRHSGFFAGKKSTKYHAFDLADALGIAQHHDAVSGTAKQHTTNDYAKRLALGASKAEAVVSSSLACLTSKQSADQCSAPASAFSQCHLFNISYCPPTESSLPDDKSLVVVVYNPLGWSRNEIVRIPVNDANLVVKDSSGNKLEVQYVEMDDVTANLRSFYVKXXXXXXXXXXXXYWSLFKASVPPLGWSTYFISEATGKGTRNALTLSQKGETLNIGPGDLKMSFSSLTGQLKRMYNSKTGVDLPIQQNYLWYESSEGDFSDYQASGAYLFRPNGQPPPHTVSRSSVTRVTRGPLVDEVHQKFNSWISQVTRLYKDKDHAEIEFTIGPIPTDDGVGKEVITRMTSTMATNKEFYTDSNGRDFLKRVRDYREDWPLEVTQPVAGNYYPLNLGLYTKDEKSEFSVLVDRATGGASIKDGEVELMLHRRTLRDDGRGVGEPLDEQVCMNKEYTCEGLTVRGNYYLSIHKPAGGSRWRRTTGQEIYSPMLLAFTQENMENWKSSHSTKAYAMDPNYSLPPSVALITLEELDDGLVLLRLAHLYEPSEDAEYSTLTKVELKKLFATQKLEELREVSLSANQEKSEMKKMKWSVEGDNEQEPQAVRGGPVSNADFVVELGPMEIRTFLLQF
The settings on record: Jack bean, cited from earlier work.

T3 sequence (Q42656 16-378): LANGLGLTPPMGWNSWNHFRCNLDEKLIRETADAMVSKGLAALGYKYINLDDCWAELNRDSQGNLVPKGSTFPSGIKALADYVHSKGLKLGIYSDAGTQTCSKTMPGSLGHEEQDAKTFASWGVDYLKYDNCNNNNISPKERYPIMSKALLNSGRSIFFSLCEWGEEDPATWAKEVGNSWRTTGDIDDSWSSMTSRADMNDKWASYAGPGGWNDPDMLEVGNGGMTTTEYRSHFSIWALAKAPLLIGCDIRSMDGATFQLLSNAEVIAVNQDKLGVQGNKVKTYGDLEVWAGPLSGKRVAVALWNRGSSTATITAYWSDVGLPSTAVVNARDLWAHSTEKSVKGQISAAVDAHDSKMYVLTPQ
T1 sequence (P69328 25-640): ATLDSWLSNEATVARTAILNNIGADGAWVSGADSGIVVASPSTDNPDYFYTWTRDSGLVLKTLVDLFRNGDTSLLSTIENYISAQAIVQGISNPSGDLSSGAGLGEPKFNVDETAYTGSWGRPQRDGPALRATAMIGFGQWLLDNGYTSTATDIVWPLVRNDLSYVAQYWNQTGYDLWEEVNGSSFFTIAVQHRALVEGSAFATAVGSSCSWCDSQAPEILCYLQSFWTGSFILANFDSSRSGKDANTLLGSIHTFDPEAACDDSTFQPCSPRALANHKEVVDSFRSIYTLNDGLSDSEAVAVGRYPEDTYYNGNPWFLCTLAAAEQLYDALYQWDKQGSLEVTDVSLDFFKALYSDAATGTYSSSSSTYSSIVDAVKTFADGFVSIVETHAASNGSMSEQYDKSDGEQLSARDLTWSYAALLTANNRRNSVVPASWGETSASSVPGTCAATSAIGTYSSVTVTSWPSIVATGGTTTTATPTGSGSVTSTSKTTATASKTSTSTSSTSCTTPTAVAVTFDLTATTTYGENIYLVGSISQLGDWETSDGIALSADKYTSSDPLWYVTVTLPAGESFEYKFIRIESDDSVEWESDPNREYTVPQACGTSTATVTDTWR
T6 sequence (Q653V7 34-885): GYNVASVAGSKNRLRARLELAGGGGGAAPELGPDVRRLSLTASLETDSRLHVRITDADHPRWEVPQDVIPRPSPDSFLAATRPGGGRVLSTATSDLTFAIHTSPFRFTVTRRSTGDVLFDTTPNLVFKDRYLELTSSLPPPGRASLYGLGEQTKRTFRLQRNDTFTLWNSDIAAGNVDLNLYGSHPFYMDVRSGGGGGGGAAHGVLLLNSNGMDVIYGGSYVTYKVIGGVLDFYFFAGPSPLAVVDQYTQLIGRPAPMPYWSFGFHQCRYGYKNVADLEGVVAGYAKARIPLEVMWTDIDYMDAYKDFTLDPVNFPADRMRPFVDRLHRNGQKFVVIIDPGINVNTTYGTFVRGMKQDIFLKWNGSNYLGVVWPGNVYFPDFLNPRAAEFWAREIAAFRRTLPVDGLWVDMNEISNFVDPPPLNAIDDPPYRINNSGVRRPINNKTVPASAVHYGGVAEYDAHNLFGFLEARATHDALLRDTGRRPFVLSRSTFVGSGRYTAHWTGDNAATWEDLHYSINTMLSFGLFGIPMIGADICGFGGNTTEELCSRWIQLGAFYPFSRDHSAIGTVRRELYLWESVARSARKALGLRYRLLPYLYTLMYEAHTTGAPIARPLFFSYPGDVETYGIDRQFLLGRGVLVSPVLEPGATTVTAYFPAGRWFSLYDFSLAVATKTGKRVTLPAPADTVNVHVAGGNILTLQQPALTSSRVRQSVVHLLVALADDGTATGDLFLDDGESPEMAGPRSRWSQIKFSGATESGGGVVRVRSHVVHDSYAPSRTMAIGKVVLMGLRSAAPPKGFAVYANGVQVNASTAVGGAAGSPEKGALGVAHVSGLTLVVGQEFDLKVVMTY
T4 sequence (P53341 whole entry): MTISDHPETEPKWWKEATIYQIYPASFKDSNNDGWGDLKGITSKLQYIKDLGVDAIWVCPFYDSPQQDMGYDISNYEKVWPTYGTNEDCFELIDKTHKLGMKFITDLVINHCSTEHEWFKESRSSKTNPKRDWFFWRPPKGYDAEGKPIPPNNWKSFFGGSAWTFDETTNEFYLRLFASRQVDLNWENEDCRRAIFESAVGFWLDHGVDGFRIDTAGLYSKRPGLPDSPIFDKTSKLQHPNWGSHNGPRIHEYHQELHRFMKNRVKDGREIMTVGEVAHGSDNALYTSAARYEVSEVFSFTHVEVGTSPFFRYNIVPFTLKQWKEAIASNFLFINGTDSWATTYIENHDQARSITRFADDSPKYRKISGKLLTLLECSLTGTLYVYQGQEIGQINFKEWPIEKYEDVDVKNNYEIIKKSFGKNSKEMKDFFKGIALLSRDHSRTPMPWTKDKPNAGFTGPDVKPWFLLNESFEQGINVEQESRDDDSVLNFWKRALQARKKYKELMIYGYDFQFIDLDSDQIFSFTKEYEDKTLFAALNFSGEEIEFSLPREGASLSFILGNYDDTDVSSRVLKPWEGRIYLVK

A word on the IC50: it is the midpoint of a concentration-inhibition curve. Regarding `OC[C@H]1NC[C@@H](O)[C@@H]1O` [DAB (1), 1,4-dideoxy-1,4-imino-D-arabinitol], the inhibition % is listed as 37% in the data set with β-Galactosidase; 7% at α-Galactosidase; 10% with β-Mannosidase; 11% at α-L-Fucosidase; 5% at α-L-Rhamnosidase. Moreover, the IC50 on β-Galactosidase is > 1000 µM; on Amyloglucosidase, 362 µM; at β-Glucosidase [1], 638 µM; on α-Galactosidase it was > 1000 µM; on α-Glucosidase [2] it was 0.15 µM; on β-Glucosidase [3], 250 µM. The IC50 was > 1000 µM on β-Mannosidase, > 1000 µM on α-L-Fucosidase and 250 µM at α-Glucosidase [4].
Regarding `OC[C@@H]1NC[C@H](O)[C@H]1O` [LAB (ent-1), 1,4-dideoxy-1,4-imino-L-arabinitol], the inhibition % with β-Galactosidase was 16%; on Amyloglucosidase (at 1000 μM (per NI footnote)), 41%; on α-Mannosidase (at 1000 μM (per NI footnote)) it was 0%; on β-Glucosidase [1] (at 1000 μM (per NI footnote)) it was 13%; on α-Galactosidase it was 2%; in the data set on β-Mannosidase, 1%. Besides, the inhibition % on α-L-Fucosidase is listed as 0%. Further, the IC50 at β-Galactosidase is > 1000 µM; at Amyloglucosidase, > 1000 µM; on α-Mannosidase, > 1000 µM; on α-Galactosidase, > 1000 µM; on α-Glucosidase [2] it was 70 µM; at β-Glucosidase [3], > 1000 µM. Moreover, the figures for the IC50 at β-Mannosidase, on α-L-Fucosidase and on α-Glucosidase [4] were > 1000 µM, > 1000 µM and 3.2 µM, respectively.
